One assay deals with T1, Grx5 (Homo sapiens, UniProt Q86SX6).
T1 construct: gene GLRX5; transit peptide removed (forward primer encodes M-GSGAG...), pET15b, His-tagged, recombinant from E. coli, IMAC purified; dimeric as Fe2S2 holo-complex
T1 sequence (Q86SX6 33-157): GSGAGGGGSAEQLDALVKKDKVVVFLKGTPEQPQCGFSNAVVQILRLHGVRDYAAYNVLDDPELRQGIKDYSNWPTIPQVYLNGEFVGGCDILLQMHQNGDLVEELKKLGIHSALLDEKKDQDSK
Nature of the assay: UV/Vis spectroscopy of reconstituted holo-complex. In kind it is binding. Particulars: bridges a dimer, co-ligated by two GSH; reconstituted with GSH, cysteine, iron and IscS, pH 8.0.

A further assay has as its target T2, Grx2 (Homo sapiens, UniProt Q9NS18).
T2 construct: gene GLRX2; Grx2c, His-tagged, recombinant from E. coli, IMAC purified; monomeric apo form, dimeric as Fe2S2 holo-complex
T2 sequence (Q9NS18 1-165 isoform Q9NS18-2): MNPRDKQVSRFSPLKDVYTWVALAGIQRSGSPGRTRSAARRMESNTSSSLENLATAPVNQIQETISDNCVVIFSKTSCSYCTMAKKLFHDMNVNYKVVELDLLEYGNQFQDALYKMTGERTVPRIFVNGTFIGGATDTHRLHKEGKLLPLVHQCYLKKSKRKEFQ
The assay can be described thus: UV/Vis spectroscopy of reconstituted holo-complex. In kind it is binding. Conditions: bridges a dimer, co-ligated by two GSH; reconstituted with GSH, cysteine, iron and IscS, pH 8.0.

The target in the next assay is T3, AtGrxC1 (Arabidopsis thaliana, UniProt Q8L8T2).
T3 construct: gene GRXC1; His-tagged, recombinant, IMAC purified
T3 sequence (Q8L8T2 whole entry): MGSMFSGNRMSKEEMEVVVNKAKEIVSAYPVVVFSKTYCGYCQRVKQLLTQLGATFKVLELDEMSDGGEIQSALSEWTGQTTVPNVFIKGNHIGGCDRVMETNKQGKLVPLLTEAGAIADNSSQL
Nature of the assay: HED assay, NADPH / glutathione reductase coupled. In kind it is biochemical. Conditions: read-out: HED assay / Km app (HED) / μM; 1 mM GSH, 200 µM NADPH, yeast glutathione reductase, 100 mM potassium phosphate pH 7.8; actual substrate is the mixed disulfide βME-SG formed from HED and GSH. The text has this: HED assay, NADPH / glutathione reductase coupled on AtGrxC1

Regarding `[S]1[Fe][S][Fe]1` [Fe2S2 cluster], the “UV/Vis spectroscopy of reconstituted holo-complex” value on Grx5 and on Grx2 was “The UV/VIS spectra (Fig. 4a) demonstrate the ability of all proteins to form FeS” in each case.

For `OCCSSCCO` [HED], the Km on AtGrxC1 came to 773 ± 164 µM.

The values above are taken from publication PMC7351949, “Molecular basis for the distinct functions of redox-active and FeS-transfering glutaredoxins” (Nature Communications, 2020).
